The conditions of data set [1]: listing, cf. PCT Publication WO/2004/062643; cited from earlier work.
For data set [2] the following is noted: listing; cited from earlier work.
The conditions of data set [3]: cited from earlier work.
Data set [4] can be described thus: Solubility of therapeutic agents in water or ethanol.

Like-named read-outs stand apart in the source and are kept apart here.

For `COc1ccc(CCN2CCC(Nc3nc4ccccc4n3Cc3ccc(F)cc3)CC2)cc1` [Astemizol], the “Solubility In Water” value in data set [1] was “Insoluble”. In addition, the Bioavailability result in data set [2] is “Low-moderate”.

With `CC(=O)OC[C@H]1O[C@@H]([S-])[C@H](OC(C)=O)[C@@H](OC(C)=O)[C@@H]1OC(C)=O.CCP(CC)CC.[Au+]` [Auranofin], in data set [1], the “Solubility In Water” value was “Slightly soluble”. The Bioavailability result in data set [2] was “Low”.

`OC(CCN1CCCCC1)(c1ccccc1)C1CC2C=CC1C2` (stereo not shown) [Biperiden]: in data set [1], the “Solubility In Water” value is given as “Sparingly soluble”. Also, in data set [2], the Bioavailability result is listed as “Low”.

In the case of `COc1cc(N)c(Cl)cc1C(=O)NC1CCN(CCCOc2ccc(F)cc2)CC1OC` (stereo not shown) [Cisapride], in data set [1], the “Solubility In Water” value is listed as “Insoluble”. In data set [2], the Bioavailability result is given as “Low”.

In the case of `CN1CCC[C@@H]1CCO[C@](C)(c1ccccc1)c1ccc(Cl)cc1` [Clemastine], the “Solubility In Water” value in data set [1] was “Slightly soluble”. Besides, the Bioavailability result in data set [2] is “Low”.

`CC1CC(OC(=O)C(O)c2ccccc2)CC(C)(C)C1` (stereo not shown) [Cyclandelate]: the “Solubility In Water” value in data set [1] is “Insoluble”. In data set [2], the Bioavailability entry was “Low”.

Consider `CCCCCc1cc(O)c2c(c1)OC(C)(C)[C@@H]1CCC(C)=C[C@@H]21` [Dronabinol], for which the “Solubility In Water” value in data set [1] is “Insoluble”. In addition, in data set [2], the Bioavailability entry was “Low”.

`CCOC(=O)C1=C(C)NC(C)=C(C(=O)OC)C1c1cccc(Cl)c1Cl` (stereo not shown) [Felodipine]: the “Solubility In Water” value in data set [1] is reported as “Insoluble”. In addition, the Bioavailability result in data set [2] is reported as “Low”.

With `OCCN1CCN(CCCN2c3ccccc3Sc3ccc(C(F)(F)F)cc32)CC1` [Fluphenazine], in data set [1], the “Solubility In Water” value is “Insoluble”. Further, the Bioavailability entry in data set [2] is listed as “Low”.

`COC(=O)C1=C(C)NC(C)=C(C(=O)OC(C)C)C1c1cccc2nonc12` (stereo not shown) [Isradipine]: the “Solubility In Water” value in data set [1] was “Insoluble”. For the same molecule, in data set [2], the Bioavailability result was “Low”.

As for `COc1ccc2cc(CCC(C)=O)ccc2c1` [Nabumetone], the “Solubility In Water” value in data set [1] is “Insoluble”. Also, in data set [2], the Bioavailability result is given as “Low”.

Regarding `CN[C@H]1CC[C@@H](c2ccc(Cl)c(Cl)c2)c2ccccc21` [Sertraline], the Bioavailability entry in data set [2] is listed as “Low”.

Turning to `CC(=O)S[C@@H]1CC2=CC(=O)CC[C@]2(C)[C@H]2CC[C@@]3(C)[C@@H](CC[C@@]34CCC(=O)O4)[C@H]12` [Spironolactone], the “Solubility In Water” value in data set [1] is “Insoluble”. For the same molecule, the Bioavailability result in data set [2] is “Low”.

Consider `C[C@]12CC[C@H]3[C@@H](CCC4=CC(=O)CC[C@@]43C)[C@@H]1CC[C@@H]2O` [Testosterone], for which the “Solubility In Water” value in data set [1] was “Insoluble”. In addition, in data set [2], the Bioavailability entry is “Low”.

`OC[C@@H](O)[C@@H](O)[C@H](O)[C@H](O)CO` [mannitol]: the solubility in water entry in data set [3] was “about 182 g/L”.

On to `OCc1cc(C(O)CNCCCCCCOCCCCc2ccccc2)ccc1O` (stereo not shown) [salmeterol xinafoate], for which, in data set [4], the solubility in ethanol result is on record as “slightly soluble in ethanol” and the solubility in water entry was “practically insoluble in water”.

As to `OC[C@H]1O[C@H](O[C@H]2O[C@H](CO)[C@@H](O)[C@H](O)[C@H]2O)[C@H](O)[C@@H](O)[C@@H]1O` [trehalose], in data set [3] (at 20 C), the solubility is reported as 68.9 g per 100 g of water.

The values above are taken from patent publication US10806871B2, “Inhalable dry powders” (priority 2012, dated 2020).
